Source: patent publication US4812482A, “Application of α-[[(2-hydroxy-1, 1-dimethyl-ethyl) amine] methyl] benzene methanol hydrochloride (EL-508) as a drug with antiinflammatory action” (Especialidades Latinas Medicamentos Universales, S.A. …, priority 1987, dated 1989)
Counter-ions that a name gives are not always drawn. Like-named read-outs stand apart in the source and are kept apart here.

Assays:
carrageenin peritonitis = test: carrageenin-induced peritonitis, oral; type: in vivo; conditions: 100 mg/Kg
[1] = system: vascular permeability (xylol); test: vascular/capillary permeability, xylol-induced extravasation; type: in vivo; conditions: for reduction of extravasation induced by xylol: solution for topical application
From the text: (§1) In these tests Benzidamine HC1 lacked action.

carrageenin oedema [2] = test: carrageenin oedema, topical application; type: in vivo; conditions: 6% aqueous or alcoholic solutions
From the text: (§2) Further, it is to be noted that the antiinflammatory activity of EL-508, after its topical application, in 6% aqueous or alcoholic solutions in acute experimental processes, is summarized in the following table in comparison to 6% benzidamine HC1 as a reference drug: […]

ovoalbumin oedema [3] = test: ovoalbumin oedema, topical application; type: in vivo; conditions: 6% aqueous or alcoholic solutions
From the text: as §2

croton oil oedema = test: croton oil oedema, topical application; type: in vivo; conditions: 6% aqueous or alcoholic solutions
From the text: as §2

kaolin oedema [4] = test: kaolin oedema, topical application; type: in vivo; conditions: 6% aqueous or alcoholic solutions
From the text: as §2

[5] = system: vascular permeability (chloroform); test: vascular/capillary permeability, chloroform-induced extravasation; type: in vivo; conditions: for reduction of extravasation induced by chloroform: solution for topical application
From the text: as §1

formalin peritonitis = test: formalin-induced peritonitis, oral; type: in vivo; conditions: 100 mg/Kg
adrenalectomized rats = test: antiinflammatory effect in adrenalectomized rats; type: in vivo
carrageenin oedema [6] = test: carrageenin-induced acute oedema, oral route; type: in vivo; conditions: rat, dose which produces 50% of oedema inhibition
From the text: (§3) ED50 are indicated, these corresponding to the dose which produces 50% of oedema inhibition.

[7] = acute toxicity LD50, mouse; conditions: in vivo
ovoalbumin oedema [8] = test: ovoalbumin-induced acute oedema, oral route; type: in vivo; conditions: rat, dose which produces 50% of oedema inhibition
From the text: as §3

rats = test: chronic toxicity over six months, rats; type: in vivo; conditions: p.o., up to 100 mg/kg/day
inflammatory processes = test: therapeutic index in the different experimental models; type: in vivo; conditions: vs reference compounds
ulcerogenic action = conditions: in vivo
[9] = system: skin, genital and conjunctival mucous membranes; test: topical tolerance in human volunteers; type: in vivo; conditions: solution
peripheral blood flow = test: peripheral blood flow; conditions: in vivo
[10] = acute and chronic toxicity and tolerance, summary; conditions: in vivo
[11] = system: skin, conjunctive and vaginal mucous membranes; test: topical tolerance of the aqueous solution after repeated applications; type: in vivo
formol oedema = test: formol-induced acute oedema, oral route; type: in vivo; conditions: rat, dose which produces 50% of oedema inhibition
From the text: as §3

kaolin oedema [12] = test: kaolin-induced acute oedema, oral route; type: in vivo; conditions: rat, dose which produces 50% of oedema inhibition
From the text: as §3

[13] = system: chronic inflammatory processes; test: experimental chronic inflammatory processes; type: in vivo
acute toxicity LD50, rat = conditions: in vivo
[14] = system: vaginitis of unknown ethiology or atrophic vaginitis and specific infectious vaginitis; test: clinical trials in vaginitis, vaginal solutions; type: in vivo, human; conditions: vaginal solutions at 5% and 0,2%
Experimental: Further, as to the pharmaceutical forms of solutions for vaginal applications at 5% and 0,2% various clinical trials were performed in patients with vaginitis of unknown ethiology or atrophic vaginitis and specific infectious vaginitis.

[15] = system: muscular-ligamentous pathological processes: luxations, sprains, contusions; test: clinical trial in muscular-ligamentous pathological processes, 6% aerosol; type: in vivo, human
From the text: Several clinical trials have been carried out with different pharmaceutical compositions with α-[[(2-hydroxy-1, 1-dimethyl-ethyl) amine]methyl]benzene methanol hydrocholride (EL-508) as active principle. In the 6% aerosol pharmaceutical composition the therapeutic action was studied in muscular-ligamentous pathological processes: luxations, sprains, contusions and the like.

carrageenin abscess = test: carrageenin abscess, oral route; type: in vivo; conditions: rat, dose which produces 50% of oedema inhibition
From the text: as §3

[16] = system: skin, genital and conjunctival mucous membranes; parameters: species or system animals; conditions: in vivo
acute inflammation = test: experiments of acute inflammation, oral and topical, summary; type: in vivo
From the text: In looking for a drug with intense topical antiinflammatory activity and good tolerance, the compound α-[[(2-hydroxy-1, 1-dimethyl-ethyl) amine]methyl]benzene methanol hydrochloride was syntheiszed and developed, and its chemical structure is completely different from that of conventional non-steroid anti-inflammatory drugs.

dogs = test: chronic toxicity over six months, dogs; type: in vivo; conditions: p.o., up to 100 mg/kg/day

In the case of `CN(C)CCCOc1nn(Cc2ccccc2)c2ccccc12` [Benzidamine HCl, reference compound], the “percentage of inhibition, Carrageenin perit.” value (carrageenin peritonitis) is reported as 31,3%, the “reduction of extravasation induced by xylol” value [1] is reported as “lacked action” and the “Inhibition % of oedemas, carrageenin” value (carrageenin oedema [2]) is reported as 7%. For the same compound, the “Inhibition % of oedemas, ovoalbumin” value (ovoalbumin oedema [3]) was 42,0%, the “Inhibition % of oedemas, Croton oil” value (croton oil oedema) was 44% and the “Inhibition % of oedemas, Kaolin” value (kaolin oedema [4]) was 0%. The “reduction of extravasation induced by chloroform” value [5] was “lacked action” and the “percentage of inhibition, Formalin perit.” value (formalin peritonitis) was 15,6%.
For `CC(C)(CO)NCC(O)c1ccccc1` (stereo not drawn) [EL-508, α-[[(2-hydroxy-1,1-dimethyl-ethyl)amine]methyl]benzene methanol hydrochloride], the antiinflammatory effect (adrenalectomized rats) was “antiinflammatory effect is direct, without central or hormaonal stimulus”, the “percentage of inhibition, Carrageenin perit.” value (carrageenin peritonitis) was 70,8% and the “activity on carrageenin peritonitis compared with reference drugs” value (carrageenin peritonitis; equal doses) was “more active than the reference drugs”. The ED50 (carrageenin oedema [6]) was 29.8 mg/kg, the LD50 ([7]; ip) was 295 mg/kg and the LD50 ([7]; iv) was 79 mg/kg. For the same compound, the LD50 ([7]; po) was 1020 mg/kg, the “activity against capillary permeability increases induced by xylol” value ([1]; all the administration routes) was “highly active” and the “reduction of extravasation induced by xylol” value [1] was 50%. The ED50 (ovoalbumin oedema [8]) was 16.7 mg/kg, the “undesirable effects in chronic toxicity study” value (rats) was “no undesirable effects attributable to the product” and the therapeutic indices (inflammatory processes) was “considerably higher than for the reference compounds”. The ulcerogenic action (ulcerogenic action) was “slight ulcerogenic action”, the topical tolerance [9] was “perfectly tolerated” and the “effect on peripheral blood flow” value (peripheral blood flow) was “did not modify at all peripheral blood flow”. The “acute and chronic toxicity” value [10] was “acute and chronic toxicity was very low”, the “systematic and topical tolerance” value [10] was “systematic and topical tolerance has been demonstrated” and the undesirable side effects [10] was “no undesirable side effects”. The “Inhibition % of oedemas, carrageenin” value (carrageenin oedema [2]) was 48%, the topical tolerance [11] was “well tolerated” and the ED50 (formol oedema) was 21.7 mg/kg. The “Inhibition % of oedemas, ovoalbumin” value (ovoalbumin oedema [3]) was 40,6%, the “Inhibition % of oedemas, Croton oil” value (croton oil oedema) was 30% and the ED50 (kaolin oedema [12]) was 44.9 mg/kg. The “Inhibition % of oedemas, Kaolin” value (kaolin oedema [4]) was 47,5%, the “activity against capillary permeability increases induced by chloroform” value ([5]; all the administration routes) was “highly active” and the “reduction of extravasation induced by chloroform” value [5] was 50%. For the same compound, the “activity on primary inflammatory phenomena” value [13] was “demonstrated its activity on primary inflammatory phenomena”, the LD50 (acute toxicity LD50, rat; ip) was 350 mg/kg and the LD50 (acute toxicity LD50, rat; iv) was 80 mg/kg. For the same compound, the LD50 (acute toxicity LD50, rat; po) was 2080 mg/kg, the efficacy in vaginitis [14] was “more efficent in these indications than iodic povidone and placebo” and the therapeutic action [15] was “therapeutic action higher than pyiridil-3-methyl amine salicylate and placebo”. For the same compound, the “percentage of inhibition, Formalin perit.” value (formalin peritonitis) was 28,1%, the “activity on formalin-induced peritonitis compared with reference drugs” value (formalin peritonitis; equal doses) was “more active than the reference drugs” and the ED50 (carrageenin abscess) was 9.4 mg/kg. The topical tolerance [16] was “perfectly tolerated”, the antiinflammatory activity (acute inflammation; oral and topical route, acute inflammation) was “great antiinflammatory activity” and the “antiinflammatory effect compared with reference products” value (acute inflammation; vs fenylbutazone, pyridil-3-methylamine salicilate, benzidamine salicilate, etc.) was “higher than the referenced products used”. The “undesirable effects in chronic toxicity study” value (dogs) was “no undesirable effects attributable to the product”.
With `CCCCC1C(=O)N(c2ccccc2)N(c2ccccc2)C1=O` [Fenilbutazone, reference compound] the ED50 (carrageenin oedema [6]) was 200 mg/kg, the “ED50 Ovoalbumin” value (ovoalbumin oedema [8]) was “Inactive” and the ED50 (carrageenin abscess) was 80 mg/kg.
For `CCCCC1C(=O)N(c2ccccc2)N(c2ccc(O)cc2)C1=O` (centres unmarked) [Oxyphenylbutazone, reference compound], the “percentage of inhibition, Carrageenin perit.” value (carrageenin peritonitis) was 58,8% and the “percentage of inhibition, Formalin perit.” value (formalin peritonitis) was 7,5%.
